Values joined by “and” are separate entries in the source; they are usually repeats but may differ in a detail not shown here. Equal entries are not always repeated.
System: HCT116 cells
Experiment: qPCR array of human cancer drug target genes
Type: cell-based
Design: key to RQ, gene BCL2 / RQ, gene IGF1R / RQ, gene KDR / RQ, gene EGFR / RQ, gene CTSB / RQ, gene RHOA / RQ, gene ESR1 / RQ, gene MDM2 / RQ, gene MDM4 / RQ, gene TOP2A / RQ, gene TOP2B / RQ, gene ATF2 / RQ, gene NFKB1 / RQ, gene TP53 / RQ, gene AURKC / RQ, gene CDC25A / RQ, gene CDK1 / RQ, gene CDK2 / RQ, gene CDK5 / RQ, gene CDK8 / RQ, gene NTN3 / RQ, gene HRAS / RQ, gene KRAS: 2^−ΔΔCT relative quantification vs DMSO control (calibrator = 1)
Conditions: 10 µM, 12 h; CTL = 1.0
Protocol: Total RNA was isolated using the RNeasy Plus Mini Kit (Qiagen; Hilden, Germany) according to the manufacturer’s instructions. The RNA was tested for purity and quantified using a NanoDrop® 1000 spectrophotometer (Thermo Fisher Scientific, Waltham, Massachusetts, USA). The Superscript VILOTM Kit was used for RNA reverse transcription (Invitrogen Corporation; Waltham, MA, USA). TaqMan® array human cancer drug targets 96-well plate, fast (ID RPRWENH, Applied BiosystemsTM, Foster City, CA, USA) was used for gene expression quantification by qPCR. The reactions were carried out in an ABI ViiA7 system (Applied BiosystemsTM).
The cycle conditions were 2 min at 50 °C, 10 min at 95 °C, and 40 cycles of 15 s at 95 °C and 1 min at 60 °C. All experiments were carried out in DNase/RNase-free environments. The 2^−ΔΔCT method was used to calculate the relative quantification (RQ) of mRNA expression using Gene Expression SuiteTM Software (Applied BiosystemsTM), and cells treated with the negative control (0.2% DMSO) served as a calibrator. The RQs of the reference genes HPRT1, TFRC and YWHAZ were used to normalize the reactions.

## cis-[Ru(phen)2(xant)](PF6) [RXC]
  RQ, gene ABCC1: 0.777
  RQ, gene AKT1: 0.624
  RQ, gene AKT2: 0.896
  RQ, gene ATF2: 0.856
  RQ, gene AURKA: 0.343
  RQ, gene AURKB: 0.562
  RQ, gene AURKC: 0.498
  RQ, gene BCL2: 0.944
  RQ, gene BIRC5: 0.499
  RQ, gene CDC25A: 1.174
  RQ, gene CDK1: 1.021
  RQ, gene CDK2: 1.057
  RQ, gene CDK4: 1.065
  RQ, gene CDK5: 0.446
  RQ, gene CDK7: 1.621
  RQ, gene CDK8: 0.943
  RQ, gene CDK9: 0.986
  RQ, gene CTSB: 1.307
  RQ, gene CTSD: 0.826
  RQ, gene CTSL: 1.073
  RQ, gene CTSS: 0.500
  RQ, gene EGFR: 1.135
  RQ, gene ERBB2: 0.312
  RQ, gene ERBB3: 0.814
  RQ, gene ESR1: 1.523
  RQ, gene ESR2: 1.673
  RQ, gene FLT4: 3.841
  RQ, gene GRB2: 1.220
  RQ, gene GSTP1: 0.609
  RQ, gene HDAC1: 0.509
  RQ, gene HDAC2: 0.509
  RQ, gene HDAC3: 0.879
  RQ, gene HDAC4: 1.233
  RQ, gene HDAC6: 0.969
  RQ, gene HDAC7: 0.975
  RQ, gene HDAC8: 0.826
  RQ, gene HDAC11: 1.433
  RQ, gene HIF1A: 0.663
  RQ, gene HRAS: 1.867
  RQ, gene HSP90AA1: 0.353 and 0.35
  RQ, gene HSP90B1: 0.285 and 0.28
  RQ, gene IGF1R: 1.146
  RQ, gene IRF5: 1.472
  RQ, gene KDR: 0.896
  RQ, gene KRAS: 2.847
  RQ, gene MDM2: 2.327
  RQ, gene MDM4: 1.960
  RQ, gene MTOR: 0.595
  RQ, gene NFKB1: 1.055
  RQ, gene NRAS: 0.893
  RQ, gene NTN3: 2.364
  RQ, gene PARP1: 0.485
  RQ, gene PARP4: 0.791
  RQ, gene PDGFRB: 2.249
  RQ, gene PIK3C2A: 1.177
  RQ, gene PIK3C3: 1.485
  RQ, gene PIK3CA: 0.956
  RQ, gene PLK1: 0.890
  RQ, gene PLK2: 1.023
  RQ, gene PLK3: 1.749
  RQ, gene PLK4: 1.081
  RQ, gene PRKCA: 0.567
  RQ, gene PRKCB: 0.993
  RQ, gene PRKCD: 1.557
  RQ, gene PRKCE: 1.461
  RQ, gene PTGS2: 1.461
  RQ, gene RHOA: 0.937
  RQ, gene RHOB: 1.762
  RQ, gene TERT: 0.866
  RQ, gene TNKS: 2.951
  RQ, gene TOP2A: 0.769
  RQ, gene TOP2B: 1.055
  RQ, gene TP53: 1.058
  RQ, gene TXN: 1.184
  RQ, gene TXNRD1: 3.038
